In patent US20260183396A1, “CXCR3 OVEREXPRESSION IN CAR-NK CELLS PRIMES MIGRATION/HOMING INTO THE TUMOR MICROENVIRONMENT” (DANA-FARBER CANCER INSTITUTE, INC., priority 2022, published 2026):

Assays:
MPM explants = test: Dynamic single-cell RNA sequencing of MPM explants; type: cell-based, human
Procedure: Dynamic single-cell RNA sequencing and data analysis. The previous protocol (Sehgal et al., J. Clin. Invest. 131:e135038 (2021)) was adapted to test S1 explants from MPM PDOTS. […] After 24 hours of treatment in a ULA dish, tumor spheroids were digested with trypsin in a 37° C. incubator for 5 minutes to obtain single-cell suspensions. Cells were loaded onto a 10× chromium instrument (10× Genomics) per manufacturer's instructions. ScRNA libraries were generated using the single cell 3′ reagent kit (10× Genomics) per the user guide. Quality control of the completed libraries was performed using a bioanalyzer high sensitivity DNA kit (Agilent) and then sequenced using the Illumina NextSeq 500 platform.
Raw sequencing reads were processed using the 10× Genomics CellRanger bioinformatics pipeline v6.0.1. The assembled matrix was then fed into the standard workflow of the R package, Seurat v4.0.4. Genes that were expressed in at least 3 cells, and only cells that expressed at least […], were kept for downstream processing. Additionally, cells expressing more than 7000 genes and cells with more than 10% of UMIs mapping to mitochondrial genes were removed from the analysis. All the samples were prepared and sequenced together on the same platform. The filtered matrix was log-normalized using global scaling in Seurat. UMI and mitochondrial transcript content were used as regression parameters. The normalized matrix was scaled and centered gene-wise, and then underwent dimensionality reduction using principal component analysis (PCA) on the highly varying genes. After visual inspection of the PCA elbow plot, the top 10 PCs were chosen for further analysis. Clustering was performed on the chosen PCs using the shared nearest neighbor algorithm in Seurat with default parameters.
A Uniform Manifold Approximation and Projection (UMAP) map was computed and plotted with the DimPlot module of Seurat. Cluster differential expression analysis was performed in Seurat using the FindMarkers command using the Wilcoxon rank sum test without thresholds. Contour plots overlayed onto UMAPs were generated with R package ggplot2 (Wickham, Springer-Verlag New York (2016)).
Cell types were identified based on comparative analysis of the signatures published previously (Han et al., Cell 172:1091-1107 (2018); Muhl et al., Nat. Commun. 11:3953 (2020); Correia et al., Proc. Natl. Acad. Sci. U.S.A. 115:E5980-E5989 (2018); Gueugnon et al., Am. J. Pathol. 178:1033-42 (2011)), as well as marker genes identified in this study, which were used to remove genes ubiquitously expressed across cell subpopulations. Collagen-encoding genes were added to the fibroblast signature.

NK cells = test: Immune cell toxicity assays, NK cells; type: cell-based; settings: 72 hours of high dose exposure; regardless of IL-2 or co-culture with TILs
Procedure: Immune Cell Toxicity Assays. […] Following treatment, samples were stained with anti-CD45, anti-CD3, anti-CD4, anti-CD8, and anti-CD56 antibodies (Table 1), as well as Zombie Green live/dead (Biolegend 423111) and analyzed by flow cytometry as described above. Data were analyzed using FlowJo software version 10.5.3. As an orthogonal measure of viability, CellTiter-Glo was performed on primary T-cells and NK cells.
CellTiter-Glo luminescent cell viability assay. Cell viability was assessed using the CellTiter-Glo Luminescent Cell Viability assay (Promega, G7571) according to manufacturer's instructions. […] All conditions were tested in triplicate and plates were read on a Tecan Infinite Mplex Microplate Reader.

Nc1ncnc2c1ncn2[C@@H]1O[C@@H]2COP(=O)([S-])O[C@@H]3[C@H](O)[C@@H](COP([O-])(=S)O[C@H]2[C@H]1O)O[C@H]3n1cnc2c(N)ncnc21.[Na+].[Na+] (stereo partly shown) [ADU-S100]
BST2 avg log2FC (MPM explants; 10 μM ADU-S100): 2.86 | C15orf48 avg log2FC (MPM explants; 10 μM ADU-S100): 3.02 | CCL5 avg log2FC (MPM explants; 10 μM ADU-S100): 2.10 | CMPK2 avg log2FC (MPM explants; 10 μM ADU-S100): 2.19 | CXCL1 avg log2FC (MPM explants; 10 μM ADU-S100): 2.20 | CXCL10 avg log2FC (MPM explants; 10 μM ADU-S100): 3.10 | CXCL11 avg log2FC (MPM explants; 10 μM ADU-S100): 2.45 | HES4 avg log2FC (MPM explants; 10 μM ADU-S100): 2.07 | HLA-B avg log2FC (MPM explants; 10 μM ADU-S100): 2.09 | HLA-C avg log2FC (MPM explants; 10 μM ADU-S100): 2.08 | IFI6 avg log2FC (MPM explants; 10 μM ADU-S100): 4.76 | IFI27 avg log2FC (MPM explants; 10 μM ADU-S100): 4.89 | IFI30 avg log2FC (MPM explants; 10 μM ADU-S100): 2.24 | IFI35 avg log2FC (MPM explants; 10 μM ADU-S100): 2.69 | IFIT1 avg log2FC (MPM explants; 10 μM ADU-S100): 3.89 | IFIT2 avg log2FC (MPM explants; 10 μM ADU-S100): 3.99 | IFIT3 avg log2FC (MPM explants; 10 μM ADU-S100): 4.01 | IFITM1 avg log2FC (MPM explants; 10 μM ADU-S100): 3.42 | IL1B avg log2FC (MPM explants; 10 μM ADU-S100): 2.23 | IL1RN avg log2FC (MPM explants; 10 μM ADU-S100): 2.21 | IL32 avg log2FC (MPM explants; 10 μM ADU-S100): 3.43 | IRF7 avg log2FC (MPM explants; 10 μM ADU-S100): 2.44 | ISG15 avg log2FC (MPM explants; 10 μM ADU-S100): 5.19 | ISG20 avg log2FC (MPM explants; 10 μM ADU-S100): 3.89 | LAP3 avg log2FC (MPM explants; 10 μM ADU-S100): 2.78 | LY6E avg log2FC (MPM explants; 10 μM ADU-S100): 3.24 | MDK avg log2FC (MPM explants; 10 μM ADU-S100): 2.01 | MX1 avg log2FC (MPM explants; 10 μM ADU-S100): 2.84 | OAS1 avg log2FC (MPM explants; 10 μM ADU-S100): 3.40 | OAS3 avg log2FC (MPM explants; 10 μM ADU-S100): 2.02 | OASL avg log2FC (MPM explants; 10 μM ADU-S100): 3.01 | PLAAT4 avg log2FC (MPM explants; 10 μM ADU-S100): 2.38 | PLSCR1 avg log2FC (MPM explants; 10 μM ADU-S100): 2.64 | RSAD2 avg log2FC (MPM explants; 10 μM ADU-S100): 4.43 | SAA1 avg log2FC (MPM explants; 10 μM ADU-S100): 2.46 | STAT1 avg log2FC (MPM explants; 10 μM ADU-S100): 2.09 | TFPI2 avg log2FC (MPM explants; 10 μM ADU-S100): 2.88 | TNFSF13B avg log2FC (MPM explants; 10 μM ADU-S100): 2.03 | WARS avg log2FC (MPM explants; 10 μM ADU-S100): 3.24 | WFDC2 avg log2FC (MPM explants; 10 μM ADU-S100): 2.06 | IL-33 expression in CAFs (MPM explants; 24 hours): potent and unique STING agonist induction | CXCR3 ligand expression (CXCL9, CXCL10, CXCL11) (MPM explants; 24 hours, primarily MSLN positive tumor cells (cluster 1) and CAFs (clusters 4, 5)): strongly induced | TGFB1 expression (MPM explants; MPM cluster 1 relative to clusters 0, 3): downregulated | NECTIN2 (CD112) expression in tumor cells (MPM explants; NK cell activating ligand): increased | HLA-A/B/C expression in tumor cells (MPM explants; NK cell inhibitory ligands): dose-dependent increases | ANGPTL4 avg log2FC (MPM explants; STING agonist treatment): −1.48 | CCDC80 avg log2FC (MPM explants; STING agonist treatment): −1.57 | CEMIP avg log2FC (MPM explants; STING agonist treatment): −1.20 | ID1 avg log2FC (MPM explants; STING agonist treatment): −1.07 | IGFBP4 avg log2FC (MPM explants; STING agonist treatment): −1.42 | KRT19 avg log2FC (MPM explants; STING agonist treatment): −1.81 | LDHA avg log2FC (MPM explants; STING agonist treatment): −1.16 | NDRG1 avg log2FC (MPM explants; STING agonist treatment): −1.07 | PABPC1 avg log2FC (MPM explants; STING agonist treatment): −1.11 | PGK1 avg log2FC (MPM explants; STING agonist treatment): −1.04 | RPL41 avg log2FC (MPM explants; STING agonist treatment): −1.09 | RPS29 avg log2FC (MPM explants; STING agonist treatment): −1.10 | RPSA avg log2FC (MPM explants; STING agonist treatment): −1.10 | SERPINB3 avg log2FC (MPM explants; STING agonist treatment): −2.15 | SERPINB4 avg log2FC (MPM explants; STING agonist treatment): −1.25 | SERPINB7 avg log2FC (MPM explants; STING agonist treatment): −1.73 | TGFBI avg log2FC (MPM explants; STING agonist treatment): −2.38 | TPI1 avg log2FC (MPM explants; STING agonist treatment): −1.11 | TUBA1A avg log2FC (MPM explants; STING agonist treatment): −1.02 | abundance of CD8 positive cell populations, including Tregs (MPM explants; high-dose treatment): depletion | PVR (CD155) expression in tumor cells (MPM explants; predominantly inhibitory ligand): decreased expression | cytotoxicity in human NK cells (NK cells): no significant cytotoxicity
